The test system of one assay is Human Platelets. Nature of the assay: In vitro inhibition of collagen-induced platelet aggregation, human platelet-rich plasma. Format: cell-based. The following applies: 0.05 h, human PRP, collagen 5 μg/ml, 3 minutes of contact at 37° C., read-out: IC50(M) in vitro Man. The protocol: A study of the inhibitory activity of the compounds of formula (I) on platelet aggregation was carried out in vitro, i.e. by direct contact of solutions of variable concentrations of the compounds with platelets freshly separated from a sample of total blood, taken under standardized conditions, from laboratory animals (guinea pigs) and from healthy human subjects who have not received any substances or drugs that might interfere with blood clotting. The anti-platelet-aggregating activity was also studied ex vivo/vitro, i.e. after administration of the substances claimed to guinea pigs to measure the intensity and duration of the anti-aggregating action induced by the fraction of the test product absorbed and circulating in the blood. Venous blood is taken from a group of ten healthy human subjects of the same age, by puncture into a vein of the fold of the elbow and is collected in a glass tube containing aqueous 0.129 M sodium citrate solution (1 volume of citrate solution per 9 volumes of blood). Each tube is then centrifuged a first time at 20° C. and 100 g for 15 minutes in order to obtain the platelet-rich plasma (PRP); after removing this PRP, the tube is again centrifuged at 2000 g for 15 minutes in order this time to remove the platelet-poor plasma (PPP). For each identified sample of PRP, the platelets are counted using a Coulter ZM counter. Each sample is then used to study the variation in inhibition of the platelet aggregation triggered by the addition of a Chromo-par-Reagent collagen glucose solution from Coultronics (used at a concentration of 5 μg/ml) as a function of the addition of increasing concentrations of each compound in a range covering the interval 10^-8 M→10^-5 M, (example of concentrations: 10^-8 […]). Beforehand, for each compound, an aqueous 10^-3 M solution is prepared. A control test intended to check the possible effect of the solvents (reference value) on the platelet aggregation is introduced into each measurement series, and the aggregation is measured after 3 minutes of contact at 37° C. with agitation. From the percentages of inhibition of the platelet aggregation measured for each concentration of each compound, the 50%; inhibitory concentration (IC50) is calculated.

For a further assay, the system named is Guinea Pig Platelets. Nature of the assay: In vitro inhibition of collagen-induced platelet aggregation, guinea pig platelet-rich plasma. Type of assay: cell-based. The following applies: guinea pig PRP, collagen 1 μg/ml, 3 minutes of contact at 37° C. The protocol: A study of the inhibitory activity of the compounds of formula (I) on platelet aggregation was carried out in vitro, i.e. by direct contact of solutions of variable concentrations of the compounds with platelets freshly separated from a sample of total blood, taken under standardized conditions, from laboratory animals (guinea pigs) and from healthy human subjects who have not received any substances or drugs that might interfere with blood clotting. The anti-platelet-aggregating activity was also studied ex vivo/vitro, i.e. after administration of the substances claimed to guinea pigs to measure the intensity and duration of the anti-aggregating action induced by the fraction of the test product absorbed and circulating in the blood.
Blood is taken by intracardiac puncture from male Dunkin-Hartley guinea pigs (weighing about 330 g), at a rate of 4.5 ml per 0.5 ml of trisodium citrate (concentration of the aqueous solution: 1.55%;) in order to prevent all trace of clotting. The platelet-rich plasma (PRP) is obtained by centrifuging the tubes of total blood for 15 minutes at 150 g.
The PRPs are collected as “pools”. The platelets contained in these pools are counted using a Coulter ZM haematology automatic device: if necessary, a dilution is carried out in order for the platelet concentration in the plasma to be between 200000 and 400000 platelets/mm^3. Simultaneously, other samples of these pools serve to prepare the platelet-poor plasma (PPP) by centrifugation at 1500 g for 15 minutes.
The kinetic study of the platelet aggregation is carried out by adding a collagen solution (1 μg/ml) to a volume of PRP, using a Chrono-log Corporation aggregometer (490-D1, or 560 VS) which uses an optical detection of the appearance of the thrombus.
The determination of the 50%; inhibitory concentration (IC50) is carried out by adding a given volume of solvent (control reference) and increasing concentrations: 1.5×10^−8 M, 7×10^−8 M, 1.5×10^−7 M, 3×10^−7 M, 7×10^−7 M, 1.5×10^−6 M and […], of the compounds to samples of the pools of PRP. The measurements of the aggregation inhibition are carried out after 3 minutes of contact at 37° C. with agitation.

Setting [1] is: Cavia porcellus, Platelet, 0.05 h.

Structures can show the parent of a compound that is named as a salt.

`CCOC(=O)[C@H](CNC(=O)CN1CCN(c2ccc(C(=N)N)cc2)CC1=O)NS(=O)(=O)c1ccccc1` [Example 17, ethyl (2S)-3-{[2-(4-{4-[amino(imino)methyl]phenyl}-2-oxopiperazino)acetyl]amino}-2-[(phenylsulphonyl)amino]propanoate acetate]: the IC50 (commonly the midpoint of a concentration-inhibition curve) is 1e-05 M with Human Platelets and 110 nM with Guinea Pig Platelets (setting [1]).
Take `CCOC(=O)[C@H](CNC(=O)CN1CCN(c2ccc(C(=N)N)cc2)CC1=O)NS(=O)(=O)c1cccnc1` [Example 18, Ethyl (2S)-3-{[2-(4-{4-[amino(imino)methyl]phenyl}-2-oxopiperazino)acetyl]amino}-2-[(3-pyridylsulphonyl)amino]propanoate diacetate]: the IC50 in the assay on Human Platelets was determined as 3.2e-05 M; with Guinea Pig Platelets (setting [1]), 910 nM.
On the same counts, the results for `CCOC(=O)[C@H](CNC(=O)CN1CCN(c2ccc(C(=N)N)cc2)CC1=O)NS(=O)(=O)c1cccc2c1NCCC2` [Example 19, Ethyl (2S)-3-{[2-(4-{4-[amino(imino)methyl]phenyl}-2-oxopiperazino)acetyl]amino}-2-[(1,2,3,4-tetrahydro-8-quinolinylsulphonyl)amino]propanoate acetate] are 8.2e-06 M and 250 nM.
On the same counts, the results for `CCOC(=O)[C@H](CNC(=O)CN1CCN(c2ccc(C(=N)N)cc2)CC1=O)NS(=O)(=O)c1ccc(C)cc1` [Example 23, Ethyl (2S)-3-{[2-(4-{4-[amino(imino)methyl]phenyl}-2-oxopiperazino)acetyl]amino}-2-{[4-toluenesulphonyl]amino}propanoate acetate] are 1.8e-05 M and 420 nM.
In the same order, the values of `CCOC(=O)[C@H](CNC(=O)CN1CCN(c2ccc(C(=N)N)cc2)CC1=O)NS(=O)(=O)c1ccc(Cl)cc1` [Example 24, Ethyl (2S)-3-{[2-(4-{4-[amino(imino)methyl]phenyl}-2-oxopiperazino)acetyl]amino}-2-{[(4-chlorophenyl)sulphonyl]amino}propanoate acetate] are 9.3e-06 M and 320 nM.
Take `CCOC(=O)[C@H](CNC(=O)CN1CCN(c2ccc(C(=N)N)cc2)CC1=O)NS(=O)(=O)c1ccc2ccccc2c1` [Example 25, Ethyl (2S)-3-{[2-(4-{4-[amino(imino)methyl]phenyl}-2-oxopiperazino)acetyl]amino}-2-[(2-naphthylsulphonyl)amino]propanoate acetate]: the values for the IC50 with Human Platelets and with Guinea Pig Platelets (setting [1]) were 9.5e-05 M and 200 nM, respectively.
On the same counts, the results for `CCOC(=O)[C@H](CNC(=O)CN1CCN(c2ccc(C(=N)N)cc2)CC1=O)NC(=O)OCC(C)C` [Example 26, Ethyl (2S)-3-{[2-(4-{4-[amino(imino)methyl]phenyl}-2-oxopiperazino)acetyl]amino}-2-[(isobutoxycarbonyl)amino]propanoate acetate] are 5.7e-06 M and 400 nM.
Consider `CCOC(=O)[C@H](CNC(=O)CN1CCN(c2ccc(C(=N)N)cc2)C(=O)C1)NS(=O)(=O)c1ccccc1` [Example 29, Ethyl (2S)-3-{[2-(4-{4-[amino(imino)methyl]phenyl}-3-oxopiperazino)acetyl]amino}-2-[(phenylsulphonyl)amino]propanoate acetate], for which the IC50 in the assay with Human Platelets is 5.3e-06 M; in the assay with Guinea Pig Platelets (setting [1]), 1800 nM.
Take `N=C(N)c1ccc(N2CCN(CC(=O)NC[C@H](NS(=O)(=O)c3ccccc3)C(=O)O)C(=O)C2)cc1` [Example 30, (2S)-3-{[2-(4-{4-[amino(imino)methyl]phenyl}-2-oxopiperazino)acetyl]amino}-2-[(phenylsulphonyl)amino]propanoic acid hydrochloride]: the IC50 came out at 1.2e-07 M in the assay on Human Platelets and 94 nM in the assay on Guinea Pig Platelets (setting [1]).
In the case of `Cc1ccc(S(=O)(=O)N[C@@H](CNC(=O)CN2CCN(c3ccc(C(=N)N)cc3)CC2=O)C(=O)O)cc1` [Example 31, (2S)-3-{[2-(4-{4-[Amino(imino)methyl]phenyl}-2-oxopiperazino)acetyl]amino}-2-{[4-toluenesulphonyl]amino}propanoic acid hydrochloride], the IC50 came to 3.4e-07 M in the assay on Human Platelets and 310 nM with Guinea Pig Platelets (setting [1]).
The compound `CCOC(=O)[C@H](CNC(=O)CN1CCN(c2ccc(C(=N)N3CCOCC3)cc2)CC1=O)NS(=O)(=O)c1ccc(C)cc1` [Example 40] registered an IC50 in the assay on Guinea Pig Platelets of 1000 nM.
On to `CCOC(=O)[C@H](CNC(=O)CN1CCN(c2ccc(C(=N)N3CCCCC3)cc2)CC1=O)NS(=O)(=O)c1ccc(C)cc1` [Example 41, Ethyl (2S)-3-{[2-(4-{4-[imino(piperidino)methyl]phenyl}-2-oxopiperazino)acetyl]amino}-2-{[4-toluenesulphonyl]amino}propanoate], for which the IC50 with Guinea Pig Platelets (setting [1]) stood at 1600 nM.

(Values after patent publication US6335337B1, “Substituted piperazinones and their therapeutic uses” (Laboratoire L. Lafon, priority 1998, dated 2002).)
